A short description of this data set: Qualitative solubility tests (polarizing microscope, drop of liquid under cover glass). It counts as physicochemical. The source says: Qualitative solubility tests. A few granules of the βCD or MβCD were placed on a microscope slide, covered with a cover glass, and examined with a polarizing microscope while a drop of liquid was placed to flow under the cover glass. These liquids comprised solvents having a wide range of solubility parameters and a number of monomers that might be of interest in dental or industrial formulations.

In the case of “fully methacrylated beta-cyclodextrin [MβCD]”, the “subjective solubility in methanol” value is recorded as “very rapidly soluble (miscible)” and the “subjective solubility in water” value is “practically insoluble”. Where the note is “1,3-glycerol dimethacrylate”, the “subjective solubility in 1,3-glycerol dimethacrylate” value was “slowly soluble”. Besides, the “subjective solubility in benzyl methacrylate” value (benzyl methacrylate) is given as “promptly soluble”. Moreover, under “hydroxyethyl methacrylate”, the “subjective solubility in hydroxyethyl methacrylate” value is “promptly soluble”. Besides, the “subjective solubility in triethyleneglycol dimethacrylate” value (triethyleneglycol dimethacrylate) is “slowly soluble”. In addition, the “subjective solubility in undiluted BIS-GMA” value (undiluted BIS-GMA) was “very slowly soluble”.

Consider `OC[C@H]1O[C@@H]2O[C@H]3[C@H](O)[C@@H](O)[C@@H](O[C@H]4[C@H](O)[C@@H](O)[C@@H](O[C@H]5[C@H](O)[C@@H](O)[C@@H](O[C@H]6[C@H](O)[C@@H](O)[C@@H](O[C@H]7[C@H](O)[C@@H](O)[C@@H](O[C@H]8[C@H](O)[C@@H](O)[C@@H](O[C@H]1[C@H](O)[C@H]2O)O[C@@H]8CO)O[C@@H]7CO)O[C@@H]6CO)O[C@@H]5CO)O[C@@H]4CO)O[C@@H]3CO` [βCD, beta-cyclodextrin, reference compound], for which the “subjective solubility in methanol” value was “practically insoluble”; the “subjective solubility in water” value is “very slowly and only slightly soluble”. The “subjective solubility in ethylene glycol dimethyl ether” value (ethylene glycol dimethyl ether) is “practically insoluble”.

These data come from US6583248B1, “Polymerizable cyclodextrin derivatives” (American Dental Association Health Foundation, priority 1997, dated 2003).
